Experimental data as given in patent US20180050040A1, “USE OF 4-(4-FLUORO-2-METHOXYPHENYL)-N--1,3,5-TRIAZIN-2-AMINE FOR TREATING LYMPHOMAS” (Bayer Pharma Aktiengesellschaft, priority 2015, published 2018).
pIC50: −log10 of the molar value. Values joined by “and” are separate entries in the source; they are usually repeats but may differ in a detail not shown here. Equal entries are not always repeated.

Tests used:
[1] = tested on: S-YU; experiment: Cell proliferation assay (CellTiter Glo), S-YU with IL-2; format: cell-based; conditions: ATL, after 24 hours of incubation, IL-2 100 IU/mL
Description: (§1) The proliferation of all lymphoma cell lines, other than S-YU, in the presence of different concentrations of Compound A′ for 72 h was assessed using CellTiter Glo kits (Promega Corporation, Madison, Wis.). Proliferation of S-YU in the presence of recombinant human interleukin-2 (IL-2) at a final concentration of 100 IU/mL, with different concentrations of Compound A′ for 24 h, was assessed in the same manner. All expressed values were averages of triplicate experiments, and IC50 was calculated using GraphPad Prism 5 (GraphPad Software, San Diego, Calif.) according to the manufacturer's instructions or the MTS software.

[2] = tested on: DLBCL OCI-LY-7 xenografts; experiment: In vivo efficacy and tolerability in DLBCL OCI-LY-7 tumour model subcutaneously implanted in NOG mice; conditions: 25 mg/kg/day p.o.
Description: The aim of the present experiments was to assess the in vivo efficacy and tolerability of Compound A′ in monotherapy in the DLBCL OCI-LY-7 tumour model subcutaneously implanted in NOG mice.
In vivo efficacy was determined in female NOG mice bearing subcutaneous DLBCL OCI-LY-7 xenografts. Compound A′ was assessed at one dose level in monotherapy. Anti-tumour activity and tolerability of the treated group was assessed using the vehicle control group as a reference.
Mouse strain, sex: NOG, female Animals supplied by: Taconic, Denmark Approximate age at implantation: 5-7 weeks
DLBCL tumour fragments, derived from the OCI-LY-7 cell line, were obtained from xenografts in serial passage in nude mice and placed in PBS containing 10% penicillin/streptomycin. Tumour fragments (one fragment per animal; 3-4 mm edge length) were then subcutaneously implanted in the flank of NOG recipient mice under isofluorane anaesthesia.
At randomisation, the volume of growing tumours was initially determined. […] The result of the randomisation was documented and maintained with the experimental data. Animals not randomised were euthanised. The day of randomisation is designated as day 0 of an experiment.
Vehicle: 80% (m/V) PEC400 in water for injection Compound A′: preparation of a dosing solution (2.5 mg/ml) once weekly by diluting the Compound A′ powder at 0.25% (w/v) in vehicle; storage of the dosing solution at 4° C.; dosing volume 10 ml/kg
Mortality checks were conducted daily during routine monitoring.
Mice were weighed twice a week. Relative body weights of individual mice in % were calculated by dividing the individual body weight on day X (BWX) by the individual body weight on day 0 (BW0) multiplied by 100 according to the formula: […]
Group median relative body weights were calculated as well, considering only the weights of mice that were alive on the day in question.
The tumour volumes were determined by two-dimensional measurement with a caliper on the day of randomisation (day 0) and then twice weekly (i.e. on the same days on which mice were weighed). Tumour volumes were calculated according to the formulas:
Tumour volume=(a×b^2)×0.5
Relative volumes of individual tumours (RTVs) for Day x were calculated by dividing the absolute individual tumour volume on Day x (Tx) by the absolute individual tumour volume of the same tumour on Day 0 (T0) multiplied by 100%:
Anti-tumour activity was evaluated as maximum tumour volume inhibition versus the vehicle control group.
Tumour inhibition for a particular day (T/C in %) was calculated from the ratio of the median RTV values of test versus control groups multiplied by 100.
The minimum (or optimum) T/C % value recorded for a particular test group during an experiment represents the maximum anti-tumour activity for the respective treatment. T/C values were calculated if at least 50% of the randomised animals in a group were alive on the day in question.
Group optimum T/C values (in %) were used for activity rating as follows: […]

[3] = tested on: ATL tumor cells (S-YU); experiment: ATL cell-bearing NOG mice treated for 21 days, survival times; format: in vivo
Description: (§2) NOD/Shi-scid, IL-2Rγ^null (NOG) mice were purchased from the Central Institute for Experimental Animals (Kanagawa, Japan) and used at between 6-8 weeks of age.
ATL cells from intraperitoneal masses suspended in RPMI-1640 were also inoculated i.p. into another 14 naive NOG mice at 1.0×10^7 cells per mouse. These animals were randomly divided into two groups of seven each for treatment with Compound A′ or vehicle. Compound A′ was formulated in the same manner, and mice were treated by oral application of 12.5 mg/kg Compound A′ or vehicle, once daily for 21 days (7-27 days after ATL cell inoculations). The therapeutic efficacy of Compound A′ was evaluated according to survival times.
(§3) Differences between groups regarding the percentage of ATL cells in mouse liver and bone marrow cell suspensions, and human sIL2R concentrations in mouse sera, were examined using a Mann-Whitney U test. Mouse survival analyses were done by Kaplan-Meier method, and survival curves were compared using the log-rank test. All analyses were performed using SPSS Statistics 17.0 software (SPSS Inc., Chicago, Ill.). In this study, P<0.05 was considered significant.

[4] = tested on: HT; experiment: Cell proliferation assay (CellTiter Glo); format: cell-based; conditions: Homo sapiens, DLBCL, GCB subtype, 72 h
Description: as §1

[5] = tested on: MJ; experiment: Cell proliferation assay (CellTiter Glo); format: cell-based; conditions: ATL, 72 h
Description: as §1

[6] = tested on: HBL1; experiment: Cell proliferation assay (CellTiter Glo); format: cell-based; conditions: HBL1, DLBCL, ABC subtype; 72 h
Description: as §1

[7] = tested on: OCI-LY-3; experiment: Cell proliferation assay (CellTiter Glo); format: cell-based; conditions: Homo sapiens, OCI-Ly3; OCI-LY-3, DLBCL, ABC subtype; 72 h
Description: as §1

[8] = tested on: DB; experiment: Cell proliferation assay (CellTiter Glo); format: cell-based; conditions: Homo sapiens, DLBCL, GCB subtype, 72 h
Description: as §1

[9] = tested on: MT-4; experiment: Cell proliferation assay (CellTiter Glo); format: cell-based; conditions: Homo sapiens, MT4; MT-4, HTLV-1-immortalized cell line; 72 h
Description: as §1

[10] = tested on: Ramos; experiment: Cell proliferation assay (CellTiter Glo); format: cell-based; conditions: Homo sapiens, Burkitt's lymphoma, 72 h
Description: as §1

[11] = tested on: Karpas422; experiment: Cell proliferation assay (CellTiter Glo); format: cell-based; conditions: Homo sapiens, KARPAS-422; Karpas422, Follicular lymphoma; 72 h
Description: as §1

[12] = tested on: TL-SU; experiment: Cell proliferation assay (CellTiter Glo); format: cell-based; conditions: HTLV-1-immortalized cell line, 72 h
Description: as §1

[13] = tested on: ATN-1; experiment: Cell proliferation assay (CellTiter Glo); format: cell-based; conditions: Homo sapiens; ATN-1, ATL; 72 h
Description: as §1

[14] = tested on: MT-2; experiment: Cell proliferation assay (CellTiter Glo); format: cell-based; conditions: Homo sapiens, MT2; MT-2, HTLV-1-immortalized cell line; 72 h
Description: as §1

[15] = tested on: TL-Om1; experiment: Cell proliferation assay (CellTiter Glo); format: cell-based; conditions: TL-Om1, ATL; 72 h
Description: as §1

[16] = tested on: Jeko-1; experiment: Cell proliferation assay (CellTiter Glo); format: cell-based; conditions: Homo sapiens; Jeko-1, Mantle cell lymphoma; 72 h
Description: as §1

[17] = tested on: OCI-LY-19; experiment: Cell proliferation assay (CellTiter Glo); format: cell-based; conditions: Homo sapiens, OCI-LY19; OCI-LY-19, DLBCL, GCB subtype; 72 h
Description: as §1

[18] = tested on: SU-DHL-8; experiment: Cell proliferation assay (CellTiter Glo); format: cell-based; conditions: Homo sapiens; SU-DHL-8, DLBCL, GCB subtype; 72 h
Description: as §1

[19] = tested on: MT-1; experiment: Cell proliferation assay (CellTiter Glo); format: cell-based; conditions: MT-1, ATL; 72 h
Description: as §1

[20] = tested on: SU-DHL-10; experiment: Cell proliferation assay (CellTiter Glo); format: cell-based; conditions: Homo sapiens, SU-DHL10; SU-DHL-10, DLBCL, GCB subtype; 72 h
Description: as §1

[21] = tested on: SU-DHL-6; experiment: Cell proliferation assay (CellTiter Glo); format: cell-based; conditions: Homo sapiens; SU-DHL-6, DLBCL, GCB subtype; 72 h
Description: as §1

[22] = tested on: KM-H2; experiment: Cell proliferation assay (CellTiter Glo); format: cell-based; conditions: Homo sapiens; KM-H2, Hodgkin lymphoma; 72 h
Description: as §1

[23] = tested on: SU-DHL-4; experiment: Cell proliferation assay (CellTiter Glo); format: cell-based; conditions: Homo sapiens; SU-DHL-4, DLBCL, GCB subtype; 72 h
Description: as §1

[24] = tested on: ATL tumor cells (S-YU); experiment: ATL cell-bearing NOG mice treated for 18 days, efficacy evaluated 25 days after inoculation; format: in vivo; conditions: 12.5 mg/kg p.o. once daily 18 days
Description: as §2
A leukemic cell clone from a patient with ATL, which could be serially transplanted into SCID mice and was designated S-YU as reported previously (Eur J Haematol. 2014; 92(3):219-228), was injected intraperitoneally (i.p.) into NOG mice. Three to four weeks after i.p. injection, NOG mice developed intraperitoneal masses within the mesentery. Cells from these intraperitoneal masses were suspended in RPMI-1640 and inoculated i.p. into healthy NOG mice, which then presented with disease features identical to those of the original mice. ATL tumor cells (S-YU) from the intraperitoneal masses were suspended in RPMI-1640, and 1.0×10^7 cells were inoculated i.p. into each of 16 naive NOG mice. The animals were randomly divided into two groups of eight each for treatment with Compound A′ or vehicle, seven days after ATL cell inoculations. Compound A′ was formulated in 40% PEG400 in water at a final concentration of 2.5 mg/mL. Mice were treated by oral application of 12.5 mg/kg Compound A′ (0.25 mg/100 μL per mouse) or vehicle (100 μL), once daily for 18 days (7-24 days after ATL cell inoculations). Therapeutic efficacy was then evaluated 25 days after ATL cell inoculations.
The concentration of human soluble IL-2 receptor (sIL2R) in mouse serum was measured by enzyme-linked immunosorbent assay (ELISA) using a human sIL2R immunoassay kit (R&D Systems, Minneapolis, Minn.) according to the manufacturer's instructions. All expressed values were averages of triplicate experiments.
as §3

[25] = OCI-LY-7 xenograft-bearing NOG mice, days 0-27
[26] = individual treated NOG mice 1-8, 25 days after inoculation, 12.5 mg/kg

Structure (SMILES): COc1cc(F)ccc1-c1ncnc(Nc2cccc(CS(C)(=N)=O)c2)n1 (single isomer, unassigned; (+)) [Compound A′, (+)-4-(4-Fluoro-2-methoxyphenyl)-N-{3-[(S-methylsulfonimidoyl)methyl]phenyl}-1,3,5-triazin-2-amine]
- pIC50 [1]: 5.53
- OCI-LY-7 tumour growth compared to vehicle control group ([2]; Mann-Whitney-Wilcoxon U-test): significantly reduced
- Activity Rating ([2]; OCI-LY-7 in NOG mice, days 0-27): ++++ (Complete remission T/C < 5%)
- Min. T/C [%] (Day) ([2]; OCI-LY-7 in NOG mice, days 0-27, minimum on day 19, 25 mg/kg/day): 2.6% and 2.6 (19) %
- Survival rate [2, 25]: 80%
- median BWL (body weight loss) [2, 25]: 17.9%
- tolerability profile ([2]; lymphoma xenograft bearing mice): acceptable tolerability profile
- Toxicity attributable to compound ([3]; ATL cell-bearing NOG mice, 12.5 mg/kg p.o. once daily, during the study period): not observed
- survival of ATL cell-bearing mice ([3]; thirty-eight days after ATL cell inoculation, 12.5 mg/kg p.o. once daily 21 days, n=7): all alive
- pIC50 [4]: 6.15
- pIC50 [5]: 6.27
- pIC50 [6]: 6.27
- pIC50 [7]: 6.47
- pIC50 [8]: 6.24
- pIC50 [9]: 5.85
- pIC50 [10]: 5.96
- pIC50 [11]: 6.18
- pIC50 [12]: 5.67
- pIC50 [13]: 6.36
- pIC50 [14]: 6.28
- pIC50 [15]: 6.10
- pIC50 [16]: 6.13
- pIC50 [17]: 6.32
- pIC50 [18]: 6.21
- pIC50 [19]: 5.92
- pIC50 [20]: 6.22
- pIC50 [21]: 6.44
- pIC50 [22]: 5.66
- pIC50 [23]: 6.77
- percentage of ATL cells (human CD45-positive, CD4-positive, CD8-negative) in bone marrow cell suspension [24, 26]: 0.01% (4×) and 0.02% (2×) and 0.72% and < 0.01%
- percentage of ATL cells (human CD45-positive, CD4-positive, CD8-negative) in liver cell suspension [24, 26]: 0.9% and 1.6% and 1.0% and 0.4% and 2.2% and 1.1% and 0.6% and 0.5%
- concentration of human sIL2R in serum, mean ([24]; treated NOG mice 1-8, ELISA): 84500 pg/mL
- concentration of human sIL2R in serum, median ([24]; treated NOG mice 1-8, ELISA): 84900 pg/mL
- concentration of human sIL2R in serum, range ([24]; treated NOG mice 1-8, ELISA): 69.0-97.4 ×10^3 pg/mL
